Data set [1] can be described thus: pKa and ionization of lidocaine. The class given is physicochemical. The note with it: pH 8.9.
The conditions of data set [2]: mixture containing 25% ethyl alcohol, 5% lidocaine, pH 9.2 phosphate buffer; cited from earlier work.
The conditions of data set [3]: Melt System III, cited from earlier work; for Percentage in aq: amount in aqueous phase/total amount in whole system × 100; for Percentage in oil: amount in oil phase/total amount in whole system × 100; for Conc in aq: g per 100 g of aqueous phase; for Conc in oil: g per 100 g of oil phase.
The conditions of data set [4]: in the mixtures that formed a homogenous oil; cited from earlier work.

Like-named read-outs stand apart in the source and are kept apart here.

As to `CCN(CC)CC(=O)Nc1c(C)cccc1C` [Lidocaine, lidocaine], the ionized in data set [1] came out at 10%. Also, the “concentration of lidocaine in the oil” value in data set [2] is 73 % (w:w). For the same compound, in data set [3], the Percentage in aq is recorded as 20.80%, the Percentage in oil result was “approximately 80%”, the Conc in aq is reported as 1.09% and the Conc in oil is recorded as 87.00%. The Percentage in oil in data set [3] (listed as L) is reported as 79.20%.

On to `Cc1ccc(C(C)C)c(O)c1` [Thymol, thymol], for which, in data set [4], the chemical stability result is listed as “chemically stable”. For the same compound, in data set [3], the Percentage in aq is 14.88%, the Percentage in oil entry is given as “approximately 85%”, the Conc in aq is listed as 0.09% and the Conc in oil is 10.60%. Besides, the Percentage in oil in data set [3] (listed as T) is listed as 85.13%.

The values are drawn from patent US8563616B2, “Desensitizing drug product” (priority 2009, dated 2013).
